Source: ChEMBL document CHEMBL1123117, “Synthesis and antiinflammatory and analgesic activity of 5-aroyl-1,2-dihydro-3H-pyrrolo[1,2-a]pyrrole-1-carboxylic acids and related compounds” (J Med Chem, 1985)

Legend:
physchem [1] = assay: physchem
Description: Dissociation constant (pKa)

physchem [2] = conditions: octanol/water
Description: Partition coefficient (logP) (HPLC)

in vivo = conditions: rat
Rattus norvegicus [3] = organism: Rattus norvegicus; assay: animal or person; conditions: 168 h, read-out: MED
Description: Minimum effective dose causing gastrointestinal erosion using seven-day chronic assay.

Mus musculus [4] = organism: Mus musculus; assay: animal or person
Description: Effective dose for mouse writhing assay

Mus musculus [5] = organism: Mus musculus; assay: […] activity using mouse writhing assay.; format: functional
Rattus norvegicus [6] = organism: Rattus norvegicus; assay: animal or person; conditions: 168 h
Description: Effective dose causing 50 % gastrointestinal erosion using seven-day chronic assay.

Rattus norvegicus [7] = organism: Rattus norvegicus; assay: animal or person
Description: Effective dose for rat paw assay

Rattus norvegicus [8] = organism: Rattus norvegicus; assay: animal or person; remark: listed apart in the source
Description: Effective dose for cotton pellet assay

Rattus norvegicus [9] = organism: Rattus norvegicus; assay: animal or person; remark: listed apart in the source
Description: Effective dose for adjuvant arthritis assay

Rattus norvegicus [10] = organism: Rattus norvegicus; assay: Antiinflammatory activity using adjuvant arthritis assay; format: functional
[11] = Therapeutic ratio as the ratio of MED value to that of ED30 for the carrageenan rat paw assay.; format: ADME; conditions: read-out: Therapeutic ratio

SMILES	logP (physchem [2])	other results
Cc1cccc(C(=O)c2ccc3n2CCC3C(=O)O)c1 (configuration not stated)	3.23	pKa (physchem [1]): 3.44
Cc1ccc(C(=O)c2ccc3n2CCCC3C(=O)O)cc1 (configuration not stated)	3.35	–
CC(=O)c1ccc(C(=O)c2ccc3n2CCC3C(=O)O)cc1 (configuration not stated)	2.27	–
COc1ccc(C(=O)c2ccc3n2CCCC3C(=O)O)cc1 (configuration not stated)	2.9	–
O=C(c1ccc([N+](=O)[O-])cc1)c1ccc2n1CCC2C(=O)O (configuration not stated)	2.48	–
CSc1ccc(C(=O)c2ccc3n2CCCCC3C(=O)O)cc1 (configuration not stated)	3.92	–
O=C(c1ccccc1Cl)c1ccc2n1CCC2C(=O)O (configuration not stated)	2.71	pKa (physchem [1]): 4.33
C=CCOc1ccc(C(=O)c2ccc3n2CCC3C(=O)O)cc1 (configuration not stated)	3.48	–
O=C(c1ccccc1O)c1ccc2n1CCC2C(=O)O (configuration not stated)	2.94	–
O=C(c1ccccc1I)c1ccc2n1CCC2C(=O)O (configuration not stated)	2.98	–
CC(C)C(=O)Nc1cccc(C(=O)c2ccc3n2CCC3C(=O)O)c1 (configuration not stated)	2.57	–
C#CCOc1ccc(C(=O)c2ccc3n2CCC3C(=O)O)cc1 (configuration not stated)	3.63	–
C=Cc1ccc(C(=O)c2ccc3n2CCC3C(=O)O)cc1 (configuration not stated)	3.47	selectivity ratio (in vivo): 18; minimal effective dose (Rattus norvegicus [3]): 5 mg/kg/day; ED50 (Mus musculus [4]): 70 mg/kg; Activity (Mus musculus [5]): ~200; ED50 (Rattus norvegicus [6]): 13 mg/kg/day; ED30 (Rattus norvegicus [7]): 15 mg/kg; ED30 (Rattus norvegicus [8]): 3 mg/kg; ED50 (Rattus norvegicus [9]): 1.7 mg/kg
O=C(c1ccc(F)cc1)c1ccc2n1CCC2C(=O)O (configuration not stated)	2.82	selectivity ratio (in vivo): 20; pKa (physchem [1]): 3.51; minimal effective dose (Rattus norvegicus [3]): 5 mg/kg/day; Activity (Rattus norvegicus [10]): 1; ED50 (Mus musculus [4]): 70 mg/kg; ED50 (Rattus norvegicus [6]): 13 mg/kg/day; ED30 (Rattus norvegicus [7]): 15 mg/kg; ED30 (Rattus norvegicus [8]): 3 mg/kg; ED50 (Rattus norvegicus [9]): 1.7 mg/kg
O=C(c1ccccc1)c1ccc2n1CC(C(=O)O)C2 (configuration not stated)	2.57	–
O=C(c1ccc2ccccc2c1)c1ccc2n1CCC2C(=O)O (configuration not stated)	3.97	pKa (physchem [1]): 3.44
O=C(c1cccc([N+](=O)[O-])c1)c1ccc2n1CCC2C(=O)O (configuration not stated)	2.47	–
CSc1ccc(C(=O)c2ccc3n2CCCC3C(=O)O)cc1 (configuration not stated)	3.54	–
O=C(c1ccc(Cl)cc1)c1ccc2n1CCCC2C(=O)O (configuration not stated)	3.6	–
O=C(c1cccc(O)c1)c1ccc2n1CCC2C(=O)O (configuration not stated)	2.18	–
O=C(c1ccccc1)c1ccc2n1CCC2C(=O)O (configuration not stated) [KETOROLAC]	2.72	pKa (physchem [1]): 3.49; minimal effective dose (Rattus norvegicus [3]): 5 mg/kg/day; ED50 (Mus musculus [4]): 70 mg/kg; selectivity ratio [11]: 18; ED50 (Rattus norvegicus [6]): 13 mg/kg/day; ED30 (Rattus norvegicus [7]): 15 mg/kg; ED30 (Rattus norvegicus [8]): 3 mg/kg; ED50 (Rattus norvegicus [9]): 1.7 mg/kg
O=C(c1ccc(Cl)cc1)c1ccc2n1CC(C(=O)O)C2 (configuration not stated)	3.45	–
C#Cc1ccc(C(=O)c2ccc3n2CCC3C(=O)O)cc1 (configuration not stated)	3.33	–
O=C(c1ccc(-c2ccccc2)cc1)c1ccc2n1CCC2C(=O)O (configuration not stated)	4.27	–
CSc1ccc(C(=O)c2ccc3n2CCC3C(=O)O)cc1 (configuration not stated)	3.68	–
Cc1ccccc1C(=O)c1ccc2n1CCC2C(=O)O (configuration not stated)	2.9	pKa (physchem [1]): 3.44
C[S+]([O-])c1ccc(C(=O)c2ccc3n2CCC3C(=O)O)cc1 (configuration not stated)	1.08	–
O=C(c1cccc(F)c1)c1ccc2n1CCC2C(=O)O (configuration not stated)	2.9	pKa (physchem [1]): 3.46

SMILES	logP (physchem [2])	other results
CCOc1cccc(C(=O)c2ccc3n2CCC3C(=O)O)c1 (configuration not stated)	3.31	pKa (physchem [1]): 3.46
O=C(c1ccc(Br)cc1)c1ccc2n1CCC2C(=O)O (configuration not stated)	3.6	–
O=C(c1ccc(C(F)(F)F)cc1)c1ccc2n1CCC2C(=O)O (configuration not stated)	3.71	–
O=C(c1ccc(O)cc1)c1ccc2n1CCC2C(=O)O (configuration not stated) [P-HYDROXY KETOROLAC]	2.17	–
O=C(c1ccc2c(c1)OCO2)c1ccc2n1CCC2C(=O)O (configuration not stated)	3.61	–
O=C(c1cccc(Cl)c1)c1ccc2n1CCC2C(=O)O (configuration not stated)	3.48	pKa (physchem [1]): 3.44
O=C(c1ccc(F)cc1F)c1ccc2n1CCC2C(=O)O (configuration not stated)	2.59	–
O=C(Cc1ccccc1)c1ccc2n1CCC2C(=O)O (configuration not stated)	2.52	–
O=C(c1ccc(Cl)cc1Cl)c1ccc2n1CCC2C(=O)O (configuration not stated)	3.56	–
O=C(c1ccc(F)cc1)c1ccc2n1CCCC2C(=O)O (configuration not stated)	2.94	–
O=C(c1ccc(F)cc1)c1ccc2n1CCCCC2C(=O)O (configuration not stated)	3.32	–
COc1cccc(C(=O)c2ccc3n2CCC3C(=O)O)c1 (configuration not stated)	2.74	–
CC(C)(C)C(=O)c1ccc2n1CCC2C(=O)O (configuration not stated)	2.6	pKa (physchem [1]): 3.57
O=C(c1cccc(C(F)(F)F)c1)c1ccc2n1CCC2C(=O)O (configuration not stated)	3.69	–
O=C(c1c(F)c(F)c(F)c(F)c1F)c1ccc2n1CCC2C(=O)O (configuration not stated)	3.24	–
CS(=O)(=O)c1ccc(C(=O)c2ccc3n2CCC3C(=O)O)cc1 (configuration not stated)	1.41	–
CC(C)Oc1ccc(C(=O)c2ccc3n2CCC3C(=O)O)cc1 (configuration not stated)	3.38	pKa (physchem [1]): 3.43
O=C(c1c(F)cccc1F)c1ccc2n1CCC2C(=O)O (configuration not stated)	2.47	–
O=C(c1ccccc1)c1ccc2n1CCCCC2C(=O)O (configuration not stated)	3.17	–
N#Cc1cccc(C(=O)c2ccc3n2CCC3C(=O)O)c1 (configuration not stated)	2.14	–
N#Cc1ccc(C(=O)c2ccc3n2CCC3C(=O)O)cc1 (configuration not stated)	2.21	–
O=C(c1ccc2n1CCC2C(=O)O)C1CCC1 (configuration not stated)	2.41	pKa (physchem [1]): 3.54
Cc1ccc(C(=O)c2ccc3n2CCC3C(=O)O)cc1 (configuration not stated)	3.24	pKa (physchem [1]): 3.44; minimal effective dose (Rattus norvegicus [3]): 3 mg/kg/day; ED50 (Mus musculus [4]): 70 mg/kg; selectivity ratio [11]: 8; ED50 (Rattus norvegicus [6]): 15 mg/kg/day; ED30 (Rattus norvegicus [7]): 15 mg/kg; ED30 (Rattus norvegicus [8]): 3 mg/kg; ED50 (Rattus norvegicus [9]): 1.7 mg/kg
O=C(c1cccc(Cl)c1)c1ccc2n1CCCC2C(=O)O (configuration not stated)	2.61	–
CS(=O)(=O)c1ccc(C(=O)c2ccc3n2CCCC3C(=O)O)cc1 (configuration not stated)	1.53	–
COc1ccc(C(=O)c2ccc3n2CCC3C(=O)O)cc1 (configuration not stated) [ANIROLAC]	2.81	selectivity ratio (in vivo): 39; pKa (physchem [1]): 3.55; minimal effective dose (Rattus norvegicus [3]): 7 mg/kg/day; ED50 (Mus musculus [4]): 70 mg/kg; ED50 (Rattus norvegicus [6]): 22 mg/kg/day; ED30 (Rattus norvegicus [7]): 15 mg/kg; ED30 (Rattus norvegicus [8]): 3 mg/kg; ED50 (Rattus norvegicus [9]): 1.7 mg/kg
CCOc1ccc(C(=O)c2ccc3n2CCC3C(=O)O)cc1 (configuration not stated)	3.3	pKa (physchem [1]): 3.46
